Measurements reported in patent US20110177156A1, “Sterol-Modified Amphiphilic Lipids” (priority 2007, published 2011).
Where two headings read alike, the source gives them in different places.

Columns and labels:
phospholipase A2 (PLA2) [1] = biological target: T1, phospholipase A2 (PLA2) (Bos taurus, UniProt P00593); assay: Drug release by phospholipase A2 (bovine); type: biochemical; details: bovine PLA2, 37° C., pH 8.8, Triton X-100
T1 construct: purchased Aldrich-Sigma
Description: All PLA2s were from Aldrich-Sigma. […] The flask was placed under high vacuum overnight.

phospholipase A2 (PLA2) [2] = details: for release of all-trans retinoic acid from SML7a: pH 8.8, Triton X-100
Procedure: Retinoic acid was used as the model drug for the investigation of enzyme triggered drug release. The release of all-trans retinoic acid from SML7a (1-cholesteryl-2-all-trans-retinoyl-sn-glycerophosphocholine) was evaluated with phospholipase A2 (PLA2) from a variety of sources including bovine, naja mossambica, and streptomyces vialaceoruber. All PLA2s were from Aldrich-Sigma. A chloroform solution of SML7a (50 μmol) in 50 mL round-bottom flask was evaporated by the rotavapor. The flask was placed under high vacuum overnight. The lipid film was hydrated in 10 mL pH 8.8 buffer containing 20 mM Triton X-100, 10 mM CaCl2, 10 mM HEPES, and 50 mM KCl. […] Aliquots of the solution (250 μL) were preincubated at 37° C. for 10 minutes, then used for the PLA2 assay. Aliquots of PLA2 solution (25 units in 250 μL pH 8.8 buffer of 10 mM HEPES, and 50 mM KCl) were preincubated at 37° C. for 10 minutes, and mixed with the aliquots of pre-warmed solution of SML7a. At different time point, the hydrolysis samples were analyzed by TLC, and quantified by densimeter.

T1 sequence (P00593 23-145): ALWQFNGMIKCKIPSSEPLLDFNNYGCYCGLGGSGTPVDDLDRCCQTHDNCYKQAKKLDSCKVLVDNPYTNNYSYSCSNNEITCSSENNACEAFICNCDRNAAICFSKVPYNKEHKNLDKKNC

Question: For “1-cholesteryl-2-all-trans-retinoyl-sn-glycerophosphocholine [SML7a]”, which “release of all-trans retinoic acid from SML7a” value (shortened to “release”) (phospholipase A2 (PLA2) [1]) is on record?
Answer: Its value is “completely release”.

Question: And the “release” value (phospholipase A2 (PLA2) [2]; naja mossambica PLA2, 37° C.)?
Answer: Its value is “completely release”.

Question: And the “relative activity of the PLA2 on SML7a” value (phospholipase A2 (PLA2) [2]; naja mossambica PLA2 compared with the two other PLA2)?
Answer: Its value is “highest activity”.

Question: And the “release” value (phospholipase A2 (PLA2) [2]; streptomyces vialaceoruber PLA2, 37° C.)?
Answer: Its value is “completely release”.
